# Assay results taken from ChEMBL document CHEMBL1127942, “Phenol based tripeptide inhibitors of ras farnesyl protein transferase” (Bioorg Med Chem Lett, 1994).
# Biological target: Protein farnesyltransferase (Homo sapiens, UniProt P49354+P49356)
# Assay: Inhibition of Protein farnesyltransferase (FPT)
# Assay type: protein-complex assay
# Details: read-out: I50
row,SMILES,IC50
1,CC(C)C[C@H](NC(=O)[C@@H](NC(=O)c1cccc(OCc2ccccc2)c1)C(C)C)C(=O)N[C@@H](CO)C(=O)O,> 360 µM
2,CC(C)C[C@H](NC(=O)[C@@H](NC(=O)c1cccc(O)c1OCc1ccccc1)C(C)C)C(=O)N[C@@H](CO)C(=O)O,157 µM
3,CC(C)C[C@H](NC(=O)[C@@H](NC(=O)c1cccc(OCc2ccccc2)c1O)C(C)C)C(=O)N[C@@H](CO)C(=O)O,> 360 µM
4,CC(C)C[C@H](NC(=O)[C@@H](NC(=O)c1ccccc1O)C(C)C)C(=O)N[C@@H](CO)C(=O)O,> 360 µM
5,CC(C)C[C@H](NC(=O)[C@@H](NC(=O)c1ccc(O)cc1)C(C)C)C(=O)N[C@@H](CO)C(=O)O,> 360 µM
6,CC(C)C[C@H](NC(=O)[C@@H](NC(=O)c1cccc(O)c1)C(C)C)C(=O)N[C@@H](CO)C(=O)O,29 µM
7,CC(C)C[C@H](NC(=O)[C@@H](NC(=O)c1ccccc1OCc1ccccc1)C(C)C)C(=O)N[C@@H](CO)C(=O)O,63 µM
8,CC(C)C[C@H](NC(=O)[C@@H](NC(=O)[C@@H](N)CO)C(C)C)C(=O)N[C@@H](CO)C(=O)O,> 360 µM
9,CC(C)C[C@H](NC(=O)[C@@H](NC(=O)c1ccc(OCc2ccccc2)cc1)C(C)C)C(=O)N[C@@H](CO)C(=O)O,166 µM
10,CC(C)C[C@H](NC(=O)[C@@H](NC(=O)c1cc(O)ccc1OCc1ccccc1)C(C)C)C(=O)N[C@@H](CO)C(=O)O,137 µM
11,CC(C)C[C@H](NC(=O)[C@@H](NC(=O)CCS)C(C)C)C(=O)N[C@@H](CO)C(=O)O,1 µM
